Experimental data published in PubChem BioAssay AID488788 (Broad Institute, 2010).
Inconclusive results are not listed. Activity calls are given as the source filed them. No rule for the calls is given here.

Target: CAAX prenyl protease 2 (Saccharomyces cerevisiae (strain ATCC 204508 / S288c)) (UniProt Q03530)
Assay: Rce1p protease inhibitors, dose response, biochemical, plate reader, cherry-pick (AID 488788)
Details: Rce1p enzyme activity

Chain of CAAX prenyl protease 2 (Saccharomyces cerevisiae (strain ATCC 204508 / S288c)) (Q03530 whole entry, looked up): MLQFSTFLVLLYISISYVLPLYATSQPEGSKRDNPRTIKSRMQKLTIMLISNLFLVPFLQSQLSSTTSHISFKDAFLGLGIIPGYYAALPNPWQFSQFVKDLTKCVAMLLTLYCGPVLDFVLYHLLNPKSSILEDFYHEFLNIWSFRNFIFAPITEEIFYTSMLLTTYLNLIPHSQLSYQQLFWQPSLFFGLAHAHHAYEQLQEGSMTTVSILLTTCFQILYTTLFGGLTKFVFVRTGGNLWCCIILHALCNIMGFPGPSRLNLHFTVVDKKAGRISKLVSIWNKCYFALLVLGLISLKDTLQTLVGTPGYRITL

| SMILES | AC50 |
| --- | --- |
| CC1COc2c(N3CCN(C)CC3)c(F)cc3c(=O)c(C(=O)O)cn1c23 (stereo not drawn) | > 10 µM (inactive) |

Same assay, conditions: Rce1p enzyme activity, at 10 µM (top of the series)

| SMILES | activity change, negative = inhibition |
| --- | --- |
| COc1cc(-c2nc3ccccn3c2/N=C/c2cccc(OC)c2O)ccc1O | inactive |
| FC(F)(F)c1cc(Oc2ccccc2)ncc1-c1nnc(-c2ccccc2Cl)o1 | inactive |
| Cc1cc(C(=O)N/N=C/c2c3ccccc3cc3ccccc23)n[nH]1 | inactive |
| CC1=C(C(=O)OCc2ccccc2)C(c2ccc(-c3ccccc3)cc2)NC(=O)N1CCCC(=O)O (stereo not drawn) | inactive |
| C=CCn1c(N2CCCCCC2)nc2c1c(=O)n(C)c(=O)n2C | inactive |
| CN1CC(C(=O)c2ccc(Cl)cc2)C(c2ccc(Cl)cc2Cl)C1 (stereo not drawn) | inactive |
| C=CCc1cccc(/C=N/NC(=O)COc2ccc(-n3cnnn3)cc2)c1O | inactive |
| NS(=O)(=O)c1ccc(NC(=O)/C=C/c2cn(-c3ccccc3)nc2-c2cccc(Cl)c2)cc1 | inactive |
| Cc1cccc(NC(=O)c2cc(S(=O)(=O)N3CCCCC3)c[nH]2)c1C | inactive |
| CCCCNC(=S)NNC(=O)CCn1cc(C)cn1 | inactive |
| Cc1ccnc(-n2c(-c3ccco3)nc3ccccc3c2=O)c1 | inactive |
| O=C(Nc1cc(S(=O)(=O)N2CCCCC2)ccc1Cl)c1ccccc1NS(=O)(=O)c1ccc(F)cc1 | inactive |
| CCC(=O)Nc1cc(-c2nn(CC(=O)N3CCCCC3)c(=O)c3ccccc23)ccc1N1CCOCC1 | inactive |
| CCOc1ccc(OCC)c(NC(=O)c2nnn(CC(=O)Nc3cc(C)cc(C)c3)c2N)c1 | inactive |
| Cc1cc(NS(=O)(=O)c2ccccc2)c([N+](=O)[O-])cc1C | inactive |
| CCn1c(C)nc2c(=O)oc3ccccc3c21 | inactive |
| Nc1c(C(=O)NCc2ccccc2)sc2nc(N3CCOCC3)c3c(c12)CCCC3 | inactive |
| COC(=O)Cn1c(CCC(=O)O)ccc1-c1ccccc1 | inactive |
| Cn1c(=O)c(C(=O)NCCO)c(O)c2ccccc21 | inactive |
| N=C(N)c1ccc(/C=C/c2ccc(C(=N)N)cc2O)cc1 | inactive |
| COc1ccc(-c2cc(C(F)(F)F)nc(SCC(=O)NCc3cnn(C)c3C)n2)cc1OC | inactive |
| CCn1cc(C(=O)NCCO)c(=O)c2cc(F)c(N3CCN(C)CC3)cc21 | inactive |
| CCCCNC(=O)C(CC)Sc1nc2sc(C(=O)OC)c(C)c2c(=O)n1N (stereo not drawn) | inactive |

| SMILES | activity change, negative = inhibition |
| --- | --- |
| COc1ccc(-n2c(N)c(C(=O)NCc3ccco3)c3nc4ccccc4nc32)c(OC)c1 | inactive |
| C/C=C(/C)C(=O)O[C@H]1[C@@H](O)c2c(ccc3ccc(=O)oc23)OC1(C)C | inactive |
| COc1ccc(-c2ccc(-c3nnc(-c4cc(OC)ccc4OC)o3)cc2)cc1 | inactive |
| Cc1ccc(S(=O)(=O)Oc2ccc(C3C4=C(CCCC4=O)N(CCC(=O)O)C4=C3C(=O)CCC4)cc2Cl)cc1 | inactive |
| Cc1cc2cc(C#N)c(NCCNC(=S)NCCCN3CCOCC3)nc2cc1C | inactive |
| O=C(O)CCCC[C@@H]1SC[C@@H]2NC(=O)N[C@@H]21 | inactive |
| Cn1c(CN2CCOCC2)c(C#N)c2ccccc21 | inactive |
| CCCCOC(=O)Nc1nc(C)c(C(=O)OCC)s1 | inactive |
| O=C1CN(S(=O)(=O)c2ccc([N+](=O)[O-])cc2)CC(=O)N1 | inactive |
| COc1ccc(/C=C/c2nc3ccccc3n2C)cc1 | inactive |
| COCCCNC(=S)NCCNc1nc2cc(C)cc(C)c2cc1C#N | inactive |
| COC(C/C=C/[C@H](O)[C@H](C)OCc1ccccc1)OC | inactive |
| COC(C[C@@H](O)C[C@H](O)[C@H](C)OCc1ccccc1)OC | inactive |
| CC(=O)OCC[N+](C)(C)C | inactive |
| CCOC(=O)c1c(C2COc3ccccc3O2)csc1NC(=O)c1ccccc1 (stereo not drawn) | inactive |
| Nc1nc2c(ncn2COC(CO)CO)c(=O)[nH]1 | inactive |
| COc1ccc(Cc2nc3ccc(C(=O)N4CCCC4)cc3o2)cc1 | inactive |
| CC1CCc2c(sc(NC(=O)COC(=O)c3ccccc3NCc3ccco3)c2C#N)C1 (stereo not drawn) | inactive |
| COc1cc(-c2nc3ccccn3c2/N=C/c2ccccc2)ccc1O | inactive |
| CC(C)CC(=O)NC(=S)Nc1ccc(S(=O)(=O)Nc2nccs2)cc1 | inactive |
| COc1cc2c(cc1OC)C(C)N(C(=O)c1cc3c(=O)oc4ccc(C)cc4c3s1)CC2 (stereo not drawn) | inactive |
| O=S(=O)(c1ccccc1)c1cnn2c(C(F)(F)F)cc(-c3ccc(F)cc3)nc12 | inactive |
| O=C(Nc1cc(Cl)cc(Cl)c1)c1coc(=O)c(Br)c1 | inactive |

| SMILES | activity change, negative = inhibition |
| --- | --- |
| Cc1nc2c(C)cccn2c(=O)c1NC(=O)COc1ccccc1 | inactive |
| COc1cc(NC(=O)C/C(C)=N/NC(=O)c2cccc(O)c2)c(OC)cc1Cl | inactive |
| O=C1OCCN1C(=O)[C@H]1[C@H](c2ccc(F)cc2)C(c2ccc(F)cc2)=NN1c1ccc(Br)cc1 | inactive |
| COc1ccc(/C=N/NC(=O)c2ccc(Cl)cc2)cc1COC(C)=O | inactive |
| COc1ccc(S(=O)(=O)NCC2CCCO2)cc1NC(=O)c1ccccc1F (stereo not drawn) | inactive |
| CC(C)[C@H](NC(=O)OCc1ccccc1)C(=O)OCC(=O)Nc1c(F)cccc1F | inactive |
| O=C1CN(C(=O)NCC(=O)N2CCCC2)c2ccccc2N1 | inactive |
| CC(=O)NC(Cc1c[nH]c2ccccc12)C(=O)O (stereo not drawn) | inactive |
| C/C(=N\NC(=O)c1ccc(Br)cc1)c1cccc(NC(=O)c2cccnc2)c1 | inactive |
| c1ccc(C[n+]2cccc3c4ccccc4ccc32)cc1 | inactive |
| CC(=O)NN1C(=O)c2ccccc2NC1c1ccccc1 (stereo not drawn) | inactive |
| Cc1cc2cc(C(=O)N3CCc4c([nH]c5ccccc45)C3c3ccccn3)ccc2o1 (stereo not drawn) | inactive |
| O=C(Nc1ccc(F)cc1)Oc1ccccc1N1CCOCC1 | inactive |
| Cc1c(Cl)c([N+](=O)[O-])nn1CC(=O)N1CCCc2ccccc21 | inactive |
| CC1=CC2=NC(=O)CC(C)(C(=O)N(CC(=O)NC3CCCC3)Cc3ccccc3)N2C=C1 (stereo not drawn) | inactive |
| CCNC(=S)NNC(=O)CCn1cc(C)cn1 | inactive |
| CCCOc1ccccc1C(=O)NCCCC(=O)O | inactive |
| Cc1nccc2c1[nH]c1ccccc12 | inactive |
| Cc1ccc(C(=O)c2c3ccc(C(F)(F)F)cc3[n+]([O-])n2CCCC(N)=O)cc1 | inactive |
| CN1CCN(C(=S)NC(=O)c2ccccc2Cl)CC1 | inactive |
| CCCCn1c(=O)c(-c2ccccc2)c(O)c2ccccc21 | inactive |
| COc1cc(-c2nc3ccccn3c2/N=C/c2cc(OC)c(OC)c(OC)c2)ccc1O | inactive |
| COC(=O)c1sccc1NC(=O)CSc1nnnn1-c1ccccc1C | inactive |

| SMILES | activity change, negative = inhibition |
| --- | --- |
| COc1ccc(C)c2sc(NC(=O)C3=COCCO3)nc12 | inactive |
| Cc1ccccc1OC(C)C(=O)N1CCC(Cc2ccccc2)CC1 (stereo not drawn) | inactive |
| Cc1nn(CCC(=O)O)c2nc(-c3cccnc3)cc(C(F)(F)F)c12 | inactive |
| Cc1cc(N2CCOCC2)n2cc(-c3ccccc3)nc2n1 | inactive |
| C#CCNC(=O)C1=C[C@@H](C2CCCCC2)C[C@@H](OCc2ccc(CO)cc2)O1 | inactive |
| CCc1ccc(NC(=O)c2cnc(N3CCN(c4ccccn4)CC3)c3ccccc23)cc1 | inactive |
| O=S(=O)(CC(CN1CCOCC1)N1CCOCC1)c1ccccc1 (stereo not drawn) | inactive |
| CCOC(=O)c1nnn2c1nc(N1CCOCC1)c1ccccc12 | inactive |
| O=C(NCC1CC1)c1ccc(Nc2nc3ccc(Br)cc3[nH]2)cc1 | inactive |
| COc1ccc(S(=O)(=O)N(CC(=O)N2CCCC2)Cc2ccccc2)cc1 | inactive |
| CC(C)N1CCN(S(=O)(=O)c2ccc3ccccc3c2)CC1 | inactive |
| COc1cc(-c2c(C#N)c(N)nc3c2c(C)nn3-c2ccc(C)c(C)c2)cc(OC)c1OC | inactive |
| COc1cc(OC)cc(-c2ncc3ccccn23)c1 | inactive |
| C=CCn1c(O)c(C(CC)=Nc2ccc(N(CC)CC)cc2)c(=O)[nH]c1=O | inactive |
| CC1=NN(c2ccccc2)C(=O)/C1=C\c1ccc(Br)s1 | inactive |
| CC(C)c1cccc(OCC(=O)Nc2ccc(S(=O)(=O)Nc3ccccn3)cc2)c1 | inactive |
| CCCCCCCCNC(C)C(O)c1ccc(SC(C)C)cc1 (stereo not drawn) | inactive |
| Cn1c(CCNS(=O)(=O)c2ccccc2)nnc1SCc1cccnc1 | inactive |
| C=CCNc1oc(/C=C/c2ccccc2)nc1C#N | inactive |
| O=C(CN1CCC(NC(=O)c2ccc(Br)cc2)CC1)NCc1cccs1 | inactive |
| COCCCNC(=O)c1cc2cc3cc(OC)ccc3nc2o1 | inactive |
| CCC1CCCCN1C(=O)NC(=O)c1ccccc1 (stereo not drawn) | inactive |
| O=C1CCCC(O)=C1N=Nc1ccc2ncsc2c1 | inactive |
